Measured values reported in patent US9757408B2 (Hayashibara Co., Ltd., priority 2010, dated 2017).
Marks after values point to notes of the source that are not given here.

Columns and labels:
[1] = tested on: skin of volunteers irradiated with ultraviolet rays; experiment: Volunteer test of creams: pigmentation (visual score, melanin index) after ultraviolet rays; assay type: in vivo, human; conditions: cream thrice a day for 28 days
Method: Melanin index was measured on “CM-700d”, a spectrophotometer commercialized by Konica Minolta Holdings, Inc., Tokyo, Japan.
In was confirmed that there were no spots and wounds in the inside of the left upper arm in each volunteer. On the day of initiating the test, four sites in the test part of each volunteer were irradiated with 1.5-times of the minimum erythemogenic dose of ultraviolet rays (UVB). The area of the irradiated site was in the range of 1×1 cm applied with each test sample. […]
From the day of initiating the irradiation of ultraviolet rays until seven days after the initiation, the test parts were visually observed and photographed by a digital camera every day, and the day, on which the erythema in the part irradiated with ultraviolet rays become unobserved, was confirmed and the days until the unobserved day for each creams were averaged and shown in Table 26. At 24 hours after the irradiation of ultraviolet rays, the degree of erythema in the part applied with each cream was scored based on the three grades of “strong (2)”, “no difference (0)”, and “weak (−2)” compared to the part applied with Cream 3, summed up the scores for each cream, and averaged. […] On 28 days after initiating the irradiation of ultraviolet rays, visual judgement on the part irradiated with ultraviolet rays and the melanin index were measured to confirm the degree of pigmentation. […]

[2] = tested on: TNF-α in serum of mice administered with LPS; experiment: Serum TNF-α in LPS-administered mice, ANO i.v. (Experiment 7); assay type: in vivo, BALB/c mice; conditions: LPS 18 mg/kg i.p., serum two hours after LPS
Method: More specifically, 18 BALB/c female mice, 9-week-old, commercialized by Japan Charles River, Tokyo, Japan, were randomly divided into three groups, six heads each. An LPS specimen derived from E. coli (055:B5), commercialized by Sigma-Aldrich Corporation, St. Louis, Mo. USA, was dissolved in physiological saline and intraperitoneally administered to all the 6 mice in respective three groups at a dose of 18 mg/kg body weight of LPS (Experiment groups 1 to 3). […] To the six mice of the remaining one group was intravenously administered PBS in a liquid volume of 0.2 mL/head simultaneously with the administration of LPS (Experiment group 1).
For the mice in each group, they were collected blood at two hours after the LPS administration, followed by assaying the level of TNF-α, IL-6, IL-10, and IL-12 in each serum and averaging the data for each group. For the assay of the level of TNF-α, the same ELISA as in Experiment 2 was used and for the assay of the level of IL-6, the same ELISA as in Experiment 3 was used. […]

[3] = tested on: TNF-α production from mouse intraperitoneal macrophages; experiment: TNF-α production from mouse intraperitoneal macrophages, LPS + IFN-γ, ELISA (Experiment 2); assay type: cell-based; conditions: for TNF-α Concentration: LPS 2 μg/mL, IFN-γ 10 IU/mL
Method: The resulting cell suspension was added to a dish for tissue culture (product code: 353003, commercialized by Becton Drive Franklin Lakes, N.J., USA), and incubated in a 5% v/v CO2 incubator at 37° C. for 1.5 hours to attach the peritoneal exudate macrophages on the surface of the dish.
TNF-α in each collected supernatant was assayed with enzyme-linked immunosorbent assay (ELISA) (Experiment groups 2 to 5). […] The results are in Table 2 in parallel. The test for each Experiment group was conducted by using three wells. The assay for TNF-α was conducted on an ELISA using a commercialized rat anti-mouse TNF-α antibody (“Rat anti-mouse/rat TNF antibody” (product code: 551225), a product name of Becton Drive Franklin Lakes, N.J., USA) as a solid phase antibody; a commercialized biotin-labeled rat anti-mouse TNF-α antibody (“Biotin-Labeled Rat Anti-Mouse TNF Antibody”, product code: 554415, commercialized by Becton Drive Franklin Lakes, N.J., USA) as a secondary antibody; and an HRPO-labeled streptavidin.

[4] = tested on: mouse intraperitoneal macrophages; experiment: Cell viability of mouse intraperitoneal macrophages, AlamarBlue (Experiment 2); assay type: cell-based; conditions: LPS 2 μg/mL, IFN-γ 10 IU/mL, control = 100%
[5] = Body weight of picryl chloride-sensitized mice applied with gels (Experiment 16); conditions: picryl chloride-sensitized NC/Nga mice, throughout the test period
Method: The eight mice in each five groups were sensitized (may be simply called “sensitization”, hereinafter) with picryl chloride (Tokyo Chemical Industry Co., Ltd., Tokyo, Japan) in such a manner of dropping a solution, which had been dissolved in a mixture solution of ethanol and acetone in a volume ratio of 4:1 at a concentration of 5%, on the shaved abdominal skin of the mice and on four footpads in a total volume of 150 μL/mouse, and spreading the solution over the abdominal skin and the foot pads by using a micropipette similarly as above.
Throughout the test period, the mice were weighed once a week. The judgement of the conditions of skin inflammation was conducted twice a week every Tuesday and Friday from the 3rd induction for the degrees of four items of red flare/bleeding, edema (swelling of earflap), chafing/loss of tissue, and the formation of scar tissue/drying, and scored based on the criterion of four grades shown in Table 17; “0” (symptomless), “1” (mild), “2” (moderate), and “3” (severe). The total scores of each evaluation items for each group were averaged for use as a skin score.

| Compound | safeness when applied to the skin (red flare, eczema) [1] | TNF-α Concentration ([2]; ANO 68 mg/kg i.v.) | TNF-α Concentration ([2]; ANO 135 mg/kg i.v.) | TNF-α Concentration ([3]; ANO 0.006 μM) [pg/mL] | TNF-α Concentration ([3]; ANO 0.031 μM) [pg/mL] | TNF-α Concentration ([3]; ANO 0.063 μM) [pg/mL] | TNF-α Concentration ([3]; ANO 0.313 μM) [pg/mL] | concentration range in which the production of TNF-α was significantly inhibited ([3]; mouse intraperitoneal macrophages, LPS and IFN-γ) [µM] | Cell viability ([4]; ANO 0.006 μM) [%] | Cell viability ([4]; ANO 0.031 μM) [%] | Cell viability ([4]; ANO 0.063 μM) [%] | Cell viability ([4]; ANO 0.313 μM) [%] | body weight of mice applied with the gel [5] |
| --- | --- | --- | --- | --- | --- | --- | --- | --- | --- | --- | --- | --- | --- |
| Nc1c2ncn([C@@H]3O[C@H](CO)[C@@H](O)[C@H]3O)c2nc[n+]1[O-] [ANO, adenosine N1-oxide] | induced no red flare, eczema, etc. | 109** pg/mL | 46** pg/mL | 1573 | 1637 | 1136 | 545 | ≥ 0.063 | 100 | 100 | 100 | 100 |  |
| OC[C@H]1O[C@@H](n2cnc3c(O)ncnc32)[C@H](O)[C@@H]1O [IN, inosine] |  |  |  |  |  |  |  |  |  |  |  |  | reduction of increasing rate of their body weights |
